From patent US20230339927A1, “ATR INHIBITORS AND USES THEREOF” (ANTENGENE DISCOVERY LIMITED, priority 2020, published 2023)

How the values were obtained:
[1] = target: T1, ATR kinase (Homo sapiens, UniProt Q13535); assay: ATR inhibition assay (mobility shift assay, FAM-RAD17 phosphorylation); assay type: biochemical; conditions: substrate FAM-RAD17, ATR kinase (Eurofins)
T1 construct: purchased Eurofins 14-953
Method: Assay 1: ATR Inhibition Assay
The assay was developed and conducted at Chempartner. All the test compounds were dissolved in 100% DMSO at concentration of 20 mM, then prepare compounds and conducted the assay as follows:
1) Transfer 80 µl20 mM compound to 40 µl of 100% DMSO in a 96-well plate.
2) Serially dilute the compound by transferring 20 µl to 60 µl of 100% DMSO in the next well and so forth for a total of 10 concentrations.
3) Add 100 µl of 100% DMSO to two empty wells for no compound control and no enzyme control in the same 96-well plate. Mark the plate as source plate.
4) Transfer 40 µl of compound from source plate to a new 384-well plate as the intermediate plate.
5) Transfer 60 nl compounds to assay plate by Echo.
No. D14JP007N) into Kinase base buffer (50 mM HEPES, pH 7.5; 0.0015% Brij-35; 0.01% Triton) to prepare 2x enzyme solution, then add 10 µl of 2x enzyme solution to each well of the 384-well assay plate, incubate at room temperature for 10 min.
8) Incubate at 28° C. for specified period of time. Add 40 µl of stop buffer (100 mM HEPES, pH 7.5; 0.015% Brij-35; 0.2% Coating Reagent #3; 50 mM EDTA) to stop reaction.
9) Collect data on Caliper. Convert conversion values to inhibition values.
wherein “max” stands for DMSO control; “min” stands for low control.
Fit the data in XLFit excel add-in version 5.4.0.8 to obtain IC50 values. Equation used is: […]
wherein X means concentration in a format not transformed to logarithms.

[2] = tested on: LoVo (CCL-229) human colorectal cancer cells; assay: Tumor cell anti-proliferation assay (CTG assay); assay type: cell-based; conditions: 96 h incubation, CellTiter-Glo, IC50 (Y=50%)
From the text: Assay 2: Tumor Cell Anti-proliferation Assay (CTG Assay)
Human colorectal cancer cells HT-29 (HTB-38) and LoVo (CCL-229) were selected for the CTG assay, the two cell lines were originally obtained from the American Type Culture Collection (ATCC). Add FBS and appropriate additives into base medium to prepare complete medium, then briefly rinse the cell layer with 0.25% (w/v) Trypsin-0.038% (w/v) EDTA solution to remove all traces of serum that contains trypsin inhibitor, after that, add appropriate volume of Trypsin-EDTA solution to flask and observe cells under an inverted microscope until cell layer is dispersed, at last, add appropriate volume of complete growth medium and aspirate cells by gently pipetting. Collect and count numbers with Vi-cell XR and adjust cell density, seed cells into 96-well opaque-walled clear bottom tissue-culture treated plates in the CO2 incubator for 20-24 hours. All the test compounds will be at 10 mM in DMSO. Compounds are then added to the cell media in 3-fold serial dilutions, the final DMSO concentration is 0.5%. Incubate plates for 96 h at 5% CO2, 37° C. Before the measurement, transfer the appropriate volume of CellTiter-Glo Buffer into the amber bottle containing CellTiter-Glo substrate to reconstitute the lyophilized enzyme/substrate mixture, mix gently, this forms the CellTiter-Glo Reagent (Promega Cat. No. G7573). Equilibrate the plate and its contents to room temperature for approximately 30 minutes, then add 100 µL of CellTiter-Glo Reagent to the assay plate, mix contents for 2 minutes on an orbital shaker to induce cell lysis, incubate at room temperature for 10 minutes to stabilize luminescent signal, at last paste the clear bottom with white back seal and record luminescence with Enspire. IC50 and GI50 values were calculated with XLFit curve fitting software using 4 Parameter Logistic Model Y=Bottom + (Top-Bottom)/(1+(IC50/X)^HillSlope).
The following Table 3 provides the IC50 (Y=50%) values for exemplary compounds of Formula (I).

T1 sequence (Q13535 whole entry): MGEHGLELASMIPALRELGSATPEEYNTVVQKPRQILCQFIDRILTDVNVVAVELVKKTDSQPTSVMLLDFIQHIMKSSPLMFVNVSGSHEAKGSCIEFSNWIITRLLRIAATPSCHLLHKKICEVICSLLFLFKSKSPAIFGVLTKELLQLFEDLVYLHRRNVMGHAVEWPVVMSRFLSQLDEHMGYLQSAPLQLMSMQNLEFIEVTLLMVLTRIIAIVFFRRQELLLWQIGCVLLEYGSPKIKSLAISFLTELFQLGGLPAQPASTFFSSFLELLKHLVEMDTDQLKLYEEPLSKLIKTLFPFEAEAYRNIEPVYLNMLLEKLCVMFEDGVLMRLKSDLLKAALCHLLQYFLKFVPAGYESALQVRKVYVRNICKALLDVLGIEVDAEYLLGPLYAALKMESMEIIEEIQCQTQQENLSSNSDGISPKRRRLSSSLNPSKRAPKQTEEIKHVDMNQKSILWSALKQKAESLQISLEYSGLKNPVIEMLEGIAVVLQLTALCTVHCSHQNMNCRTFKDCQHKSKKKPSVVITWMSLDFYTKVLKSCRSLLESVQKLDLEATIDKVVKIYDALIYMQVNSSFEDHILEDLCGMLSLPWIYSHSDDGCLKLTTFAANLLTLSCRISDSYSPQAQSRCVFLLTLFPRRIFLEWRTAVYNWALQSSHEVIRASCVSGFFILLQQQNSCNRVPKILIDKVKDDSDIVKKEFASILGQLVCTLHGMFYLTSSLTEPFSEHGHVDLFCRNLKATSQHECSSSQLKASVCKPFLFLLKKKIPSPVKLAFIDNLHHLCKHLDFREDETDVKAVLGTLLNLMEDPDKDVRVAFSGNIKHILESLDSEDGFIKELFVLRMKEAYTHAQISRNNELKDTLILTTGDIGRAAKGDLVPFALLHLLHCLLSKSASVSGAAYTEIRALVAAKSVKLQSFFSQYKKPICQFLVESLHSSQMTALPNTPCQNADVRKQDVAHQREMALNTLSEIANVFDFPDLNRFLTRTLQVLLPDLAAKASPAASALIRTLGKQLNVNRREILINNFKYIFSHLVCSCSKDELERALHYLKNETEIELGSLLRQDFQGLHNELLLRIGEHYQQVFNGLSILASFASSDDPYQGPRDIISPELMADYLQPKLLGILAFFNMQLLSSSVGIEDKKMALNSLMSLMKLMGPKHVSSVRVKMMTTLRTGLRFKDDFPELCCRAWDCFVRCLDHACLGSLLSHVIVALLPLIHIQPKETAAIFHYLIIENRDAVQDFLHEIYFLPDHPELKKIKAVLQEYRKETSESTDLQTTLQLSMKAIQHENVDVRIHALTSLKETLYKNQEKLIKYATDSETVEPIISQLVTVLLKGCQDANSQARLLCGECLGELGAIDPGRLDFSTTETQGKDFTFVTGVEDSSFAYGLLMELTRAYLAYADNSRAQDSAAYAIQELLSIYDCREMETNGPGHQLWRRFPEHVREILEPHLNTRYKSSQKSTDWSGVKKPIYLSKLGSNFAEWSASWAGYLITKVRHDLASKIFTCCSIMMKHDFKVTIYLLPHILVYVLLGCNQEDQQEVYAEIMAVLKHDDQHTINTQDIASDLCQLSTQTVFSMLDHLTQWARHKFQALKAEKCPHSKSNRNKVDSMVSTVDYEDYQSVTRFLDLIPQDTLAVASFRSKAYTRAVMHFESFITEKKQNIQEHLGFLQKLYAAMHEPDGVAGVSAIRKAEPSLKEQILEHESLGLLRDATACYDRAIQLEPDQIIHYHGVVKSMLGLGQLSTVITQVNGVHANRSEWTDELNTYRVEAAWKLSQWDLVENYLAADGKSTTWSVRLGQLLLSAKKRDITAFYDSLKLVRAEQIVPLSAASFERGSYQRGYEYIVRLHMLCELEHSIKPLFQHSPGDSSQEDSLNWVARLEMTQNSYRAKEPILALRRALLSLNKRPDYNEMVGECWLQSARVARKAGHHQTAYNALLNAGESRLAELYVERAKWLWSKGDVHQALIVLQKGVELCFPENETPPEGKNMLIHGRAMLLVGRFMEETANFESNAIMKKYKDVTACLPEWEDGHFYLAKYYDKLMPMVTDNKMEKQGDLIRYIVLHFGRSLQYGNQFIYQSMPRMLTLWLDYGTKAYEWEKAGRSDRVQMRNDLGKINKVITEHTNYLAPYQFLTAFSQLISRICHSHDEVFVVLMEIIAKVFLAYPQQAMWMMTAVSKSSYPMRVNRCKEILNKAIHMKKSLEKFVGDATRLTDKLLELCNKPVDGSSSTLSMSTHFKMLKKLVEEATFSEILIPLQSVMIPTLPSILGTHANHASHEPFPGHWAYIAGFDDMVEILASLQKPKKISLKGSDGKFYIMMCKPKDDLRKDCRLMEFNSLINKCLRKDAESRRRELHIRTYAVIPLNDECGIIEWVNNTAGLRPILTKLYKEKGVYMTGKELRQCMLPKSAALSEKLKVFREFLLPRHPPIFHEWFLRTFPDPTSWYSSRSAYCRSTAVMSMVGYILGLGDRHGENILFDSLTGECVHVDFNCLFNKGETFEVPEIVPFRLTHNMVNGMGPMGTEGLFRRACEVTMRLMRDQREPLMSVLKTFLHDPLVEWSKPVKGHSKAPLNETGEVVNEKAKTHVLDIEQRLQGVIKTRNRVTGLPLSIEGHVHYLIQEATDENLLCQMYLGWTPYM
T1 sequence (Q8WXE1 whole entry partner): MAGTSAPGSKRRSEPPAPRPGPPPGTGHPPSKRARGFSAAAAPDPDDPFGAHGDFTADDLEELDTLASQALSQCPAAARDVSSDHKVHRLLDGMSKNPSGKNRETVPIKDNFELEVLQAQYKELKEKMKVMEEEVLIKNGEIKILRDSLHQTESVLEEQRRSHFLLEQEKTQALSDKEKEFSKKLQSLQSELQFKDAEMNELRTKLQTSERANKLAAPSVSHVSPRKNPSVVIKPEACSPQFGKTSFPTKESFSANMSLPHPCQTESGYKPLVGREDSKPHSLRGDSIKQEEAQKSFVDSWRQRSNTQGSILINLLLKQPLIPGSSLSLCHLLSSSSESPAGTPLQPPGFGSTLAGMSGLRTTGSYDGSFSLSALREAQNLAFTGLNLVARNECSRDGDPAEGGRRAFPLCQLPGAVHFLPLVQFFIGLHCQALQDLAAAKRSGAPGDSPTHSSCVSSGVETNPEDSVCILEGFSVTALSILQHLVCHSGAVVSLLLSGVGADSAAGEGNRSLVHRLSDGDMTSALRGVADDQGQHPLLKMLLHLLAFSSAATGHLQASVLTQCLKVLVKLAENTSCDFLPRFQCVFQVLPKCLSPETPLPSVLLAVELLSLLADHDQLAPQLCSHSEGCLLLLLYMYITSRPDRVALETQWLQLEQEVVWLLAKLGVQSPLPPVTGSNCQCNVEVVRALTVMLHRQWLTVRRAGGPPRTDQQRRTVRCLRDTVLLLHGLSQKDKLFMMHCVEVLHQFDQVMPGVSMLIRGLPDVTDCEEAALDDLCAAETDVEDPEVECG

| SMILES | IC50 [1] | IC50 [2] |
| --- | --- | --- |
| C[C@@H]1COCCN1c1cc(C2(S(C)(=O)=O)CC2)cc(Nc2ccn[nH]2)n1 [Compound 1, (R)-6-(3-methylmorpholino)-4-(1-(methylsulfonyl)cyclopropyl)-N-(1H-pyrazol-5-yl)pyridin-2-amine] | 0.0144 µM | 0.334 µM |
| Cc1cnn(C)c1-c1cc(Nc2ccn[nH]2)nc(N2CCOC[C@H]2C)c1 [Compound 4, (R)-4-(1,4-dimethyl-1H-pyrazol-5-yl)-6-(3-methylmorpholino)-N-(1H-pyrazol-5-yl)pyridin-2-amine] | 0.0163 µM | 0.385 µM |
| C[C@@H]1COCCN1c1cc(C2(S(C)(=O)=O)CC2)nc(Nc2ccn[nH]2)n1 [Compound 5, (R)-4-(3-methylmorpholino)-6-(1-(methylsulfonyl)cyclopropyl)-N-(1H-pyrazol-5-yl)pyrimidin-2-amine] | – | 0.653 µM |
| Cc1cc(Nc2nc(N3CCOC[C@H]3C)cc(C3(S(C)(=O)=O)CC3)n2)[nH]n1 [Compound 6, 4-(1-methanesulfonylcyclopropyl)-N-(3-methyl-1H-pyrazol-5-yl)-6-[(3R)-3-methylmorpholin-4-yl]pyrimidin-2-amine] | 0.016 µM | 0.401 µM |
| C[C@@H]1COCCN1c1cc(C(C)(C)S(C)(=O)=O)nc(Nc2ccn[nH]2)n1 [Compound 7, (R)-4-(3-methylmorpholino)-6-(2-(methylsulfonyl)propan-2-yl)-N-(1H-pyrazol-5-yl)pyrimidin-2-amine] | 0.028 µM | 0.872 µM |
| Cc1cc(Nc2nc(N3CCOC[C@H]3C)cc(C(C)(C)S(C)(=O)=O)n2)[nH]n1 [Compound 8, (R)-N-(3-methyl-1H-pyrazol-5-yl)-4-(3-methylmorpholino)-6-(2-(methylsulfonyl)propan-2-yl)pyrimidin-2-amine] | 0.0132 µM | 0.398 µM |
| Cc1cc(Nc2nc(N3CCOC[C@H]3C)cc(C3(C#N)CC3)n2)[nH]n1 [Compound 9, (R)-1-(2-((3-methyl-1H-pyrazol-5-yl)amino)-6-(3-methylmorpholino)pyrimidin-4-yl)cyclopropanecarbonitrile] | 0.022 µM | 0.538 µM |
| Cc1cc(Nc2nc(N3CCOC[C@H]3C)cc(C(C)(C)C#N)n2)[nH]n1 [Compound 10, (R)-2-methyl-2-(2-((3-methyl-1H-pyrazol-5-yl)amino)-6-(3-methylmorpho-lino)pyrimidin-4-yl)propanenitrile] | 0.01 µM | 0.263 µM |
| C[C@@H]1COCCN1c1cc(C2(S(C)(=O)=O)CCOCC2)nc(Nc2ccn[nH]2)n1 [Compound 11, (R)-4-(3-methylmorpholino)-6-(4-(methylsulfonyl)tetrahydro-2H-pyran-4-yl)-N-(1H-pyrazol-5-yl)pyrimidin-2-amine] | – | 1.31 µM |
| Cc1cc(Nc2nc(N3CCOC[C@H]3C)cc(C3(S(C)(=O)=O)CCOCC3)n2)[nH]n1 [Compound 12, (R)-N-(3-methyl-1H-pyrazol-5-yl)-4-(3-methylmorpholino)-6-(4-(methylsulfonyl)tetrahydro-2H-pyran-4-yl)pyrimidin-2-amine] | 0.013 µM | 0.611 µM |
| C[C@@H]1COCCN1c1cc(N(C)S(C)(=O)=O)cc(Nc2ccn[nH]2)n1 [Compound 13, (R)-N-(2-((1H-pyrazol-5-yl)amino)-6-(3-methylmorpholino)pyridin-4-yl)-N-methylmethanesulfonamide] | – | 0.807 µM |
| Cc1cnn(C)c1-c1cc(N2CCOC[C@H]2C)nc(Nc2ccn[nH]2)c1CO [Compound 15, (R)-(2-((1H-pyrazol-5-yl)amino)-4-(1,4-dimethyl-1H-pyrazol-5-yl)-6-(3-methylmorpholino)pyridin-3-yl)methanol] | – | 0.515 µM |
| C[C@@H]1COCCN1c1cc(C2(S(C)(=O)=O)CC2)c(CO)c(Nc2ccn[nH]2)n1 [Compound 17, (R)-(2-((1H-pyrazol-5-yl)amino)-6-(3-methylmorpholino)-4-(1-(methylsulfo-nyl)cyclopropyl)pyridin-3-yl)methanol] | – | 0.594 µM |
| Cc1cc(Nc2cc(C3(S(C)(=O)=O)CC3)cc(N3CCOC[C@H]3C)n2)[nH]n1 [Compound 19, 4-(1-methanesulfonylcyclopropyl)-N-(3-methyl-1H-pyrazol-5-yl)-6-[(3R)-3-methylmorpholin-4-yl]pyridin-2-amine] | 0.0103 µM | 0.225 µM |
| Cc1noc(C)c1-c1cc(Nc2ccn[nH]2)nc(N2CCOC[C@H]2C)c1 [Compound 22, (R)-4-(3,5-dimethylisoxazol-4-yl)-6-(3-methylmorpholino)-N-(1H-pyrazol-5-yl)pyridin-2-amine] | – | 0.192 µM |
| Cc1cc(Nc2cc(-c3c(C)nnn3C)cc(N3CCOC[C@H]3C)n2)[nH]n1 [Compound 23, 4-(dimethyl-1H-1,2,3-triazol-5-yl)-N-(3-methyl-1H-pyrazol-5-yl)-6-[(3R)-3-methylmorpholin-4-yl]pyridin-2-amine] | 0.0155 µM | 0.388 µM |
| Cc1cnn(C)c1-c1cc(N2CCOC[C@H]2C)nc(Nc2ccn[nH]2)c1F [Compound 33, (R)-4-(1,4-dimethyl-1H-pyrazol-5-yl)-3-fluoro-6-(3-methylmorpholino)-N-(1H-pyrazol-5-yl)pyridin-2-amine] | – | 0.842 µM |
| C[C@@H]1COCCN1c1cc(C2(S(C)(=O)=O)CC2)c(F)c(Nc2ccn[nH]2)n1 [Compound 34, (R)-3-fluoro-6-(3-methylmorpholino)-4-(1-(methylsulfonyl)cyclopropyl)-N-(1H-pyrazol-5-yl)pyridin-2-amine] | – | 0.442 µM |
| Cc1cc(Nc2cc(C3(S(C)(=O)=O)CCOCC3)cc(N3CCOC[C@H]3C)n2)[nH]n1 [Compound 36, (R)-N-(3-methyl-1H-pyrazol-5-yl)-6-(3-methylmorpholino)-4-(4-(methylsulfonyl)tetrahydro-2H-pyran-4-yl)pyridin-2-amine] | – | 0.966 µM |
| C[C@@H]1COCCN1c1cc(C2(C#N)CCCC2)cc(Nc2ccn[nH]2)n1 [Compound 37, 1-{2-[(3R)-3-methylmorpholin-4-yl]-6-[(1H-pyrazol-5-yl)amino]pyridin-4-yl}cyclopentane-1-carbonitrile] | – | 0.8 µM |
| C[C@@H]1COCCN1c1cc(C2(C#N)CCOCC2)cc(Nc2ccn[nH]2)n1 [Compound 39, (R)-4-(2-((1H-pyrazol-5-yl)amino)-6-(3-methylmorpholino)pyridin-4-yl) tetrahydro-2H-pyran-4-carbonitrile] | – | 0.844 µM |
| C[C@@H]1COCCN1c1cc(C2(C#N)CCCC2)nc(Nc2ccn[nH]2)n1 [Compound 40, (R)-1-(2-((1H-pyrazol-5-yl)amino)-6-(3-methylmorpholino)pyrimidin-4-yl) cyclopentane-1-carbonitrile] | – | 0.698 µM |
| C[C@@H]1COCCN1c1cc(C2(S(C)(=O)=O)CCOCC2)cc(Nc2ccn[nH]2)n1 [Compound 45, (R)-6-(3-methylmorpholino)-4-(4-(methylsulfonyl)tetrahydro-2H-pyran-4-yl)-N-(1H-pyrazol-5-yl)pyridin-2-amine] | – | 1.01 µM |
| Cc1cc(Nc2cc(-c3c(C)cnn3C)cc(N3CCOC[C@H]3C)n2)[nH]n1 [Compound 46, (R)-4-(1,4-dimethyl-1H-pyrazol-5-yl)-N-(3-methyl-1H-pyrazol-5-yl)-6-(3-methylmorpholino)pyridin-2-amine] | – | 0.41 µM |
| Cc1cc(Nc2cc(-c3c(C)noc3C)cc(N3CCOC[C@H]3C)n2)[nH]n1 [Compound 47, (R)-4-(3,5-dimethylisoxazol-4-yl)-N-(3-methyl-1H-pyrazol-5-yl)-6-(3-methylmorpholino)pyridin-2-amine] | – | 0.39 µM |
